According to ChEMBL document CHEMBL1201862, “PubChem BioAssay data set” (2004):
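Dose response: 5 concentrations. Exposure: 48 h. Format: 96-well plates. Endpoint: linear interpolation; highest concentration if not reached. GI50 = concentration required for 50% inhibition of growth.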 Calls of active or inactive are those of the source. No stated cut-off is given here; in the data, active = GI50 up to about 1.1 µM and inactive = higher.

What was measured:
Assay in all cases: NCI anticancer screen, dose series, 48 h
A549 = test system: A549
TK-10 = test system: TK-10
XF498 = test system: XF498
SK-MEL-2 = test system: SK-MEL-2
SF-539 = test system: SF-539
HOP-92 = test system: HOP-92
M14 = test system: M14
DLD-1 = test system: DLD-1
SN12C = test system: SN12C
CAKI-1 = test system: CAKI-1
LOX IMVI = test system: LOX IMVI
RPMI-8226 = test system: RPMI-8226
OVCAR-8 = test system: OVCAR-8
SK-OV-3 = test system: SK-OV-3
OVCAR-4 = test system: OVCAR-4
U-251 = test system: U-251
SNB-75 = test system: SNB-75

Measured: GI50

NCCNCCNCc1c2ccccc2c(CNCCNCCN)c2ccccc12
inactive: A549 79.3 µM | TK-10 > 100 µM | XF498 72.9 µM | SK-MEL-2 > 100 µM | SF-539 37.5 µM | HOP-92 22.3 µM | M14 > 100 µM | DLD-1 > 100 µM | SN12C 58.2 µM | CAKI-1 > 100 µM | LOX IMVI 70.6 µM | RPMI-8226 29.6 µM | OVCAR-8 47.9 µM | SK-OV-3 > 100 µM | OVCAR-4 41.6 µM | U-251 51.6 µM

O=C1OC2CCCC[C@@H]2C2C[C@]34CCCCC3[C@@H](C(=O)O4)C12 (some centres not stated)
inactive: A549 > 100 µM | TK-10 > 100 µM | XF498 > 100 µM | SK-MEL-2 > 100 µM | SF-539 > 100 µM | HOP-92 > 100 µM | M14 > 100 µM | SNB-75 > 100 µM | DLD-1 > 100 µM | SN12C > 100 µM | LOX IMVI > 100 µM | OVCAR-8 > 100 µM | SK-OV-3 > 100 µM | OVCAR-4 > 100 µM | U-251 > 100 µM

c1ccc(C2CC(c3ccc4ccccc4c3)=Nc3ccccc3S2)cc1 (configuration not stated)
inactive: A549 18.3 µM | TK-10 22.3 µM | XF498 17.4 µM | SK-MEL-2 18.1 µM | SF-539 16.7 µM | M14 15.8 µM | SNB-75 15.6 µM | DLD-1 > 10 µM | SN12C 16.7 µM | CAKI-1 > 10 µM | LOX IMVI 15.7 µM | RPMI-8226 3.26 µM | OVCAR-8 16.3 µM | SK-OV-3 38.5 µM | OVCAR-4 19.5 µM | U-251 17.3 µM

CC(=O)O/C(C)=C\C(=O)O/N=C(\N)c1ccc(C)cc1
inactive: A549 40.4 µM | TK-10 63.8 µM | XF498 23.9 µM | SK-MEL-2 28.6 µM | SF-539 20.6 µM | HOP-92 33.7 µM | M14 28.4 µM | SNB-75 19.2 µM | DLD-1 18.9 µM | SN12C 22 µM | CAKI-1 > 100 µM | LOX IMVI 34.4 µM | RPMI-8226 31 µM | OVCAR-8 36.6 µM | SK-OV-3 > 100 µM | OVCAR-4 25.8 µM | U-251 19.5 µM

Cc1nn(C(=O)CC(=O)Nc2ccccc2Cl)c(C)c1/N=N/c1ccccc1Cl
inactive: A549 > 100 µM | TK-10 > 100 µM | XF498 > 100 µM | SK-MEL-2 > 100 µM | SF-539 80.9 µM | HOP-92 > 100 µM | M14 > 100 µM | SNB-75 82 µM | DLD-1 > 100 µM | SN12C > 100 µM | CAKI-1 > 100 µM | LOX IMVI > 100 µM | OVCAR-8 > 100 µM | SK-OV-3 > 100 µM | OVCAR-4 > 100 µM | U-251 > 100 µM

C[N+]1(C)C/C(=C\c2ccccc2)C(=O)/C(=C/c2ccccc2)C1
inactive: A549 > 100 µM | TK-10 > 100 µM | XF498 > 100 µM | SF-539 > 100 µM | HOP-92 > 100 µM | M14 > 100 µM | SNB-75 > 100 µM | DLD-1 > 100 µM | SN12C 18.5 µM | RPMI-8226 51.2 µM | OVCAR-8 > 100 µM | SK-OV-3 > 100 µM | OVCAR-4 > 100 µM | U-251 31.4 µM

COc1cc(C(=O)C/C(CCC(=O)Nc2ccccc2[N+](=O)[O-])=N\NC(=O)CC#N)ccc1O
inactive: A549 > 100 µM | TK-10 > 100 µM | XF498 > 100 µM | SK-MEL-2 > 100 µM | SF-539 > 100 µM | M14 > 100 µM | SNB-75 49.1 µM | DLD-1 > 100 µM | SN12C > 100 µM | CAKI-1 > 100 µM | LOX IMVI > 100 µM | RPMI-8226 > 100 µM | OVCAR-8 > 100 µM | SK-OV-3 > 100 µM | OVCAR-4 > 100 µM

CSC1(C)CC2C(CC1N1CCCCC1)C2(C)C (configuration not stated)
inactive: A549 > 100 µM | TK-10 > 100 µM | XF498 > 100 µM | SK-MEL-2 > 100 µM | SF-539 > 100 µM | HOP-92 > 100 µM | M14 > 100 µM | SNB-75 > 100 µM | DLD-1 > 100 µM | SN12C > 100 µM | RPMI-8226 > 100 µM | OVCAR-8 > 100 µM | SK-OV-3 > 100 µM | OVCAR-4 > 100 µM | U-251 > 100 µM

O=C(O)c1oc2ccc([N+](=O)[O-])c3c2c1CCC3
inactive: A549 > 100 µM | TK-10 > 100 µM | XF498 24.4 µM | SK-MEL-2 > 100 µM | SF-539 > 100 µM | HOP-92 27.7 µM | M14 > 100 µM | SNB-75 67.6 µM | DLD-1 > 100 µM | SN12C > 100 µM | CAKI-1 > 100 µM | LOX IMVI > 100 µM | OVCAR-8 > 100 µM | OVCAR-4 > 100 µM | U-251 > 100 µM

COc1ccc2c3c(c(C(=O)O)oc13)CCC2
inactive: A549 > 100 µM | TK-10 > 100 µM | XF498 > 100 µM | SK-MEL-2 > 100 µM | SF-539 > 100 µM | HOP-92 > 100 µM | M14 > 100 µM | SNB-75 29.1 µM | DLD-1 > 100 µM | SN12C > 100 µM | LOX IMVI > 100 µM | RPMI-8226 > 100 µM | OVCAR-8 > 100 µM | SK-OV-3 > 100 µM | OVCAR-4 > 100 µM | U-251 > 100 µM

O=C(CC(=O)N1N=C(N2c3ccccc3Sc3ccccc32)CC1c1ccccc1)Nc1ccc(Cl)cc1 (configuration not stated)
inactive: A549 > 100 µM | TK-10 > 100 µM | XF498 > 100 µM | SF-539 > 100 µM | HOP-92 > 100 µM | M14 > 100 µM | SNB-75 > 100 µM | DLD-1 > 100 µM | SN12C > 100 µM | CAKI-1 > 100 µM | LOX IMVI > 100 µM | OVCAR-8 > 100 µM | SK-OV-3 > 100 µM | OVCAR-4 > 100 µM | U-251 > 100 µM

CCOC(=O)C1=C(C)N(Cc2ccccc2)C(C)=C(C(=O)OCC)C1c1ccccc1O
inactive: A549 29.2 µM | TK-10 47.5 µM | XF498 21.5 µM | SK-MEL-2 20 µM | SF-539 27.7 µM | HOP-92 13.7 µM | M14 33.7 µM | SNB-75 27.5 µM | DLD-1 27.9 µM | SN12C 28.4 µM | CAKI-1 27.2 µM | LOX IMVI 17.9 µM | OVCAR-8 31.7 µM | SK-OV-3 47.2 µM | OVCAR-4 34.8 µM | U-251 39.4 µM

O=C1OC(c2ccccc2)=N/C1=C/NC(Cc1ccc(O)cc1)C(=O)O (configuration not stated)
inactive: A549 > 100 µM | TK-10 > 100 µM | XF498 > 100 µM | SK-MEL-2 > 100 µM | SF-539 > 100 µM | HOP-92 > 100 µM | M14 > 100 µM | SNB-75 > 100 µM | DLD-1 > 100 µM | CAKI-1 > 100 µM | LOX IMVI > 100 µM | RPMI-8226 > 100 µM | OVCAR-8 > 100 µM | SK-OV-3 > 100 µM | OVCAR-4 > 100 µM | U-251 > 100 µM
